Laboratory results reported in publication PMC10464304, “Refined read‐out: The hUHRF1 Tandem‐Tudor domain prefers binding to histone H3 tails containing K4me1 in the context of H3K9me2/3” (Protein Science : A Publication of the Protein Society, 2023).

Molecular target: T1, hUHRF1‐TTD WT (GST‐fused, residues 126–280) (Homo sapiens, UniProt Q96T88)
T1 construct: on previously defined borders (residues 126–280; Rothbart et al., [2012]) was N‐terminally fused to GST; made in house; host or cells: Escherichia coli
T1 sequence (Q96T88 126-280): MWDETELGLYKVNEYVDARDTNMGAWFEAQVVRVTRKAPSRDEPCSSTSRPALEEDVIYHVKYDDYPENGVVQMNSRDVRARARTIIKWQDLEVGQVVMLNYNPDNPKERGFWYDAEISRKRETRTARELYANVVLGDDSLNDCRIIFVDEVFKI
Assay: Equilibrium peptide binding titration by fluorescence anisotropy (FA), TTD WT
Experimental: The Tandem Tudor domain of hUHRF1 (UNIPROT Q96T88) on previously defined borders (residues 126–280; Rothbart et al., [2012]) was N‐terminally fused to GST. Mutations were introduced using an updated rolling circle protocol and validated by Sanger sequencing. Proteins were overexpressed in Escherichia coli by induction with 1 mM isopropyl‐β‐D‐thiogalactopyronoside (IPTG) when OD600 reached 0.6–0.8, and the culture was continued overnight at 20°C. The cells were harvested by centrifugation for 30 min, at 4°C and 3781 g. For purification, each pellet was resuspended in 30 mL sonication buffer (500 mM KCl, 20 mM HEPES pH 7.5, 10% v/v glycerol, and 0.2 mM dithiothreitol [DTT]) and sonicated for cell lysis (Q120 Sonicator, Active Motif). After centrifugation for 1 h at 4°C and 45,850 g, the soluble protein was purified using Glutathione Agarose 4B gravitational columns and dialyzed against dialysis buffer (200 mM KCl, 20 mM HEPES, 10% v/v glycerol, pH 7.5, and 0.2 mM DTT). […] Protein concentration was determined spectroscopically by A 280 and purity was verified on SDS‐PAGE.
Equilibrium peptide binding experiments were performed on a Jasco FP‐8300 spectrofluorometer with an automatic polarizer FDP‐837. […] Acquisitions were performed at 23°C with excitation at 493 nm and emission measured at 520 nm, slit width set to 5 nm for both, and multiple accumulations. […]

preference for the double‐modified peptide (H3K4me1‐K9me2 versus H3K9me2 peptide, FA titrations with GST‐TTD WT (Figure S3a)) [fold] | binding of TTD WT to the peptide (in words) (Supplemental Figure 3B, control data, FA titration) | Substance
> 2 |  | ARTK(me1)QTARK(me2)STGGKAPRKQ-K(FITC) [H3K4me1‐K9me2, FITC‐labeled histone H3 (1-19) peptide with K4me1 and K9me2]
 | weakly | ARTK(me1)QTARKSTGGKAPR-K(FITC) [H3K4me1, FITC‐labeled histone H3 (1-17) peptide with K4me1]
